Results from patent US20220213070A1, “COMPOUNDS INHIBITING TDG ACTIVITY” (EPITAS BIOSCIENCES (SHANGHAI) CO., LTD., priority 2019, published 2022).
pIC50: −log10 of the molar value.

What was measured:
TDG [1] = target: T1, TDG (Homo sapiens, UniProt Q13569); assay: TDG inhibitory activity of compounds in cells (caC-cmv-firefly luciferase reporter, HEK 293T TDG KO cells transfected with pCDNA4-TDG); assay type: cell-based; conditions: read-out: Inhibition rate on TDG activity
Protocol: Experimental Determination of TDG Inhibitory Activity of Compounds in Cells
The operation steps of this example are as follows:
(1) Preparation of Methylation Reporter Plasmid:
(a) SAM with a stock solution concentration of 32 mM was diluted with ultrapure water to 1600 μM;
(b) The reaction system was prepared according to the following ratio: 30 μl ultrapure water, 5 μl 10×NEBuffer 2, 5 μl diluted SAM, 1 μg pCpGL-CMV-firefly plasmid, 1 μl SssI methylase (4 U/μl); 50 μl in total, the reaction was carried out at 37° C. for 2 hours;
(c) The mixture was heated at 65° C. for 20 minutes. Then 0.2% SDS was added, the reaction was carried out at 80° C. for 10 min; and then 1 μl Proteinase K was added, the reaction was carried out at 50° C. for 1 h;
(d) The methylated plasmid was recovered with Dr. GenTLE® sedimentation aid (TAKARA).
(2) Preparation of 5fC/5caC pCpGL-CMV-Firefly Reporter Plasmid
(a) The following 10× reaction system was prepared:
(b) The reaction system was prepared according to the following ratio:
(c) The reaction was carried out at 37° C. for one hour;
(d) 24 μg Tet1 protein was added for the second time and the reaction was continued for one hour;
(e) SDS was added to a final concentration of 0.5%, 80° C., 10 minutes, then 1 μl Proteinase K was added, 55° C. overnight.
(f) The treated caC-cmv-firefly plasmid was recovered with Dr. GenTLE® sedimentation aid (TAKARA) and was quantified.
(3) Using the Luciferase Activity Assay Method to Detect the Inhibitory Rate of Small Molecule Compounds on Intracellular TDG Enzyme Activity
In a 96-well plate, the reaction system and operation flow of each well were as follows:
(a) 1 ng caC-cmv-firefly, Ing pCpGL-CMV-Relina and 150 ng pCDNA4-TDG or 150 ng pCDNA4-myc plasmid, were diluted to 75 ul Opti-MEM, mixed well and allowed to stand still for 5 minutes;
(b) 2 ul transfection reagent (Hieff Trans™ Liposomal transfection Reagent (0.5 ul/well, YEAEEN, Cat #40802)) was diluted in 100 ul Opti-MEM, mixed well and allowed to stand still for 5 minutes;
(c) 75 ul of (a) and (b) were mixed respectively, and allowed to stand still at room temperature for 20 minutes;
(d) HEK 293T TDG KO cells were digested with trypsin, the cells were collected and counted, and the suspension cell concentration was adjusted to 4×10^5/ml;
(e) 50 ul of the mixture (c) was added to each well, and at the same time 100 ul of the diluted cell suspension was added to the same well, and they were mixed well.
(f) After the cells adhering to the wall, different concentrations of small molecule compounds to be tested were added to each well.
(g) Incubation was performed in a 37° C. CO2 incubator for 72 hours. The supernatant was removed and the cells were quickly freezed at −80° C.
(h) Before detecting the luciferase activity, the cells to be tested were removed from −80° C. and allowed to stand still at room temperature for 30 minutes. Following the instructions of Dual-Glo® Luciferase Reagent (PROMEGA), the firefly fluorescence value and Renilla fluorescence value of each well were detected.
(i) The firefly fluorescence value was divided with the Renilla fluorescence value of each well; 96-well plate Z′ and experimental window was calculated by the ratio of transfected caC-cmv-firefly, pCpGL-CMV-Relina, pCDNA4-TDG plasmid mixture plus DMSO experimental group to transfected caC-cmv-firefly, pCpGL-CMV-Relina, pCDNA4-myc plasmid mixture plus DMSO experimental group, and the relative enzyme activity inhibition rate of each compound was calculated.
According to the biological method described in this example, the selected compounds of the present invention were analyzed, and the results are shown in Table 2. Among them, “+” in Table 2 refers to the compound's TDG inhibitory activity at a concentration of 10 μM≤25%; “++” refers to the compound's TDG inhibitory activity at a concentration of 10 μM>25%.

TDG [2] = target: T1, TDG; assay: Inhibition of TDG mismatch repair activity (fluorescent G·U double-stranded DNA probe T1-T2); assay type: biochemical; conditions: TDG 100 nM/L, preincubated with compound 37° C. 30 minutes; probe 30 nM; read-out: Inhibitory activity on TDG mismatch repair IC50
Text: 14.1 Experimental Determination of Compound's Inhibitory Rate on TDG Mismatch Repair Activity
(1) A double-stranded DNA probe T1-T2 containing uracil bases was synthesized. The nucleotide sequence of the T1 chain was: 5′-FAM-TAAUGTGAATGGAGCTGAAAT-biotin-3′; The nucleotide sequence of the T2 chain was 5′-ATTTCAGCTCCATTCACGTTA-3′. Using PCR annealing program, the T1 strand and T2 strand were complementary to form a double-stranded DNA probe T1-T2.
(2) The reaction system and steps for each well of a 96-well plate were as follows: a. TDG (100 nM/L) was mixed with different concentrations of compounds, and the mixture was incubated at 37° C. for 30 minutes. The composition of the reaction buffer was: 20 mM HEPES pH7.5, 100 mM NaCl, 0.2 mM EDTA, 2.5 mM MgCl2; b. The double-stranded DNA probe T1-T2 was added to the mixture to obtain a final volume of 100 μL, with a concentration of 30 nM, and the mixture was incubated at 25° C. for 30 min; c. 1 μL of streptavidin magnetic beads were added to the reaction solution and fully bound the biotin-labeled DNA for 1 hour; d. NaOH was added to the reaction solution to a final concentration of 200 mM, and the mixture was incubated at room temperature for 30 minutes; e. Under the action of a magnetic stand the streptavidin magnetic beads were adsorbed to the tube wall, the supernatant was transferred to a new 96-well plate, and placed in a Tecan microplate reader for fluorescence measurement. The parameter settings were: excitation wavelength 485 nm; emission wavelength 520 nm. A linear curve between fluorescence intensity and TDG concentration was constructed, R^2=0.9968, and the linear range was 0-50 nM/L;
According to the biological method described in this example, the selected compounds of the present invention were analyzed, and the results are shown in Table 1. Among them, “++” in Table 1 refers to the inhibitory activity for TDG mismatch repair with IC50≤5 μM; “+” refers to the inhibitory activity for TDG mismatch repair with IC50>5 μM.

[3] = tested on: Lung cancer cell line Calu-1; assay: Inhibition of the growth of Calu-1 cells (CellTiter-Glo, 72 hours); assay type: cell-based; conditions: Homo sapiens, 72 hours of culturing, read-out: Inhibitory activity on alu-1 cell growth IC50
Protocol: 14.2 Experimental Determination of Compound's Inhibitory Rate on the Growth of Calu-1 Cells
Lung cancer cell line Calu-1 was cultured in 90% McCoy's 5A medium (BI, 01-075-1ACS)+10% fetal bovine serum (Gibco, 10270106), placed in a CO2 incubator (37° C., 5% CO2, 95% air) for culturing. Calu-1 cells were digested with trypsin (Gibco, 12604-021) and seeded in a 384-well plate at a density of 500 cells per well. The medium was 50 μL and it was cultured overnight at 37° C. in an incubator. On the next day, different concentrations of test compounds were added, and the final concentration of DMSO was 0.1%. After 72 hours of culturing, the cells were taken out for test. The cell culture medium from the 384-well plate to be tested was removed, and fresh culture medium premixed with CTG was immediately added: the ratio of the culture medium to CellTiter-Glo® 2.0 reagent (Promega, G9243) was 2:1, 30 ul was added to each well. The plate was shaken at room temperature for 20 minutes, and then a multi-function plate reader (TECAN, Infinite 200 Pro) was used according to the reagent instructions to determine the cell survival.
According to the biological method described in this example, the selected compounds of the present invention were analyzed, and the results are shown in Table 1. Among them, “++” in Table 1 refers to the inhibitory activity on the growth of calu-1 cells with IC50≤5 μM; “+” refers to the inhibitory activity on the growth of calu-1 cells with IC50>5 μM.

T1 sequence (Q13569 whole entry): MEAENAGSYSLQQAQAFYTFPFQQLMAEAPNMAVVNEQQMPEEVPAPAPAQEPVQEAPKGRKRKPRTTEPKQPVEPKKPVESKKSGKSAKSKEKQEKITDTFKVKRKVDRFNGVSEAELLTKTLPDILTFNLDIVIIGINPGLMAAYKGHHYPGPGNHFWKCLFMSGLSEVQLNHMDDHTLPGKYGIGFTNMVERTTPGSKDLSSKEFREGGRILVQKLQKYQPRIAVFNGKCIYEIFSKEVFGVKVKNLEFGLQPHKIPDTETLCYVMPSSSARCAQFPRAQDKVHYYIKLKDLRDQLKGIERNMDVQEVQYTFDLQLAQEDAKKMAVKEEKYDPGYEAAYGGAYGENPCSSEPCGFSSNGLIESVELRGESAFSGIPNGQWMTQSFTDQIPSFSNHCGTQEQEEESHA

Row | SMILES | inhibition at 10 µM (TDG [1]) [%] | pIC50 (TDG [2]) | pIC50 [3]
1 | O=C(CCn1ccc(-c2ccc(F)cc2)cc1=O)c1ccc2c(c1)OCCO2 [Compound 18, 1-(3-(2,3-dihydrobenzo[b][1,4]dioxin-6-yl)-3-oxopropyl)-4-(4-fluorophenyl)pyridine-2(1H)-one] | > 25 | ≥ 5.30 | < 5.30
2 | O=C(CCN1CCN(c2ncccn2)CC1)c1ccc2c(c1)OCCO2 [Compound 19, 1-(2,3-dihydrobenzo[b][1,4]dioxin-6-yl)-3-(4-(pyrimidin-2-yl)piperazin-1-yl)propan-1-one] | < 25 | < 5.30 | ≥ 5.30
3 | O=C(CCNc1ccc2cnccc2c1)c1ccc2c(c1)OCCO2 [Compound 20, 1-(2,3-dihydrobenzo[b][1,4]dioxin-6-yl)-3-(isoquinolin-6-ylamino)propan-1-one] | < 25 | < 5.30 | < 5.30
4 | O=C(CCN1CCC(c2ccccc2)CC1)c1ccc2c(c1)OCCO2 [Compound 21, 1-(2,3-dihydrobenzo[b][1,4]dioxin-6-yl)-3-(4-phenylpiperidin-1-yl)propan-1-one] | < 25 | ≥ 5.30 | < 5.30
5 | O=C(CCN1C(=O)CSC1=S)c1ccc2c(c1)OCCO2 [Compound 22, 3-(3-(2,3-dihydrobenzo[b][1,4]dioxin-6-yl)-3-oxopropyl)-2-thiothiazolidine-4-one] | < 25 | < 5.30 | < 5.30
6 | CC(C)(C)OC(=O)NCC1(O)CN(CCC(=O)c2ccc3c(c2)OCCO3)C1 [Compound 23, tert-butyl ((1-(3-(2,3-dihydrobenzo[b][1,4]dioxin-6-yl)-3-oxopropyl)-3-hydroxyazetidin-3-yl)methyl)carbamate] | < 25 | < 5.30 | < 5.30
7 | COc1ccc2cn(CCC(=O)c3ccc4c(c3)OCCO4)nc2c1 [Compound 24, 1-(2,3-dihydrobenzo[b][1,4]dioxin-6-yl)-3-(6-methoxy-2H-indazol-2-yl)propan-1-one] | < 25 | < 5.30 | < 5.30
8 | O=C(CCn1ncc2ccncc21)c1ccc2c(c1)OCCO2 [Compound 25, 1-(2,3-dihydrobenzo[b][1,4]dioxin-6-yl)-3-(1H-pyrazolo[3,4-c]pyridine-1-yl)propan-1-one] | < 25 | < 5.30 | < 5.30
9 | O=C(CCNC1=NCc2ccccc21)c1ccc2c(c1)OCCO2 [Compound 26, 3-((1H-isoindo1-3-yl)amino)-1-(2,3-dihydrobenzo[b][1,4]dioxin-6-yl)propan-1-one] | < 25 | < 5.30 | < 5.30
10 | O=C(CCN1CCC(=O)c2ccccc21)c1ccc2c(c1)OCCO2 [Compound 27, 1-(3-(2,3-dihydrobenzo[b][1,4]dioxin-6-yl)-3-oxopropyl)-2,3-dihydroquinoline-4(1H)-one] | < 25 | < 5.30 | < 5.30
11 | O=C(CCn1cc(-c2ccccc2)cn1)c1ccc2c(c1)OCCO2 [Compound 28, 1-(2,3-dihydrobenzo[b][1,4]dioxin-6-yl)-3-(4-phenyl-1H-pyrazol-1-yl)propan-1-one] | < 25 | < 5.30 | < 5.30
12 | c1ccc2c(c1)CN(CCCc1ccc3c(c1)OCCO3)C2 [Compound 29, 2-(3-(2,3-dihydrobenzo[b][1,4]dioxin-6-yl)propyl)isoindoline] | > 25 | < 5.30 | < 5.30
13 | O=C(CCN1Cc2ccccc2C1)c1ccc2c(c1)CCCN2 [Compound 30, 3-(isoindolin-2-yl)-1-(1,2,3,4-tetrahydroquinolin-6-yl)propan-1-one] | < 25 | < 5.30 | < 5.30
14 | O=C(CCCN1Cc2ccccc2C1)c1ccc2c(c1)OCCO2 [Compound 31, 1-(2,3-dihydrobenzo[b][1,4]dioxin-6-yl)-4-(isoindolin-2-yl)butan-1-one] | < 25 | < 5.30 | < 5.30
15 | O=C(CN1Cc2ccccc2C1)c1ccc2c(c1)OCCO2 [Compound 32, 1-(2,3-dihydrobenzo[b][1,4]dioxin-6-yl)-2-(isoindolin-2-yl)ethan-1-one] | < 25 | < 5.30 | < 5.30
16 | O=C(c1ccc2c(c1)OCCO2)N1Cc2ccccc2C1 [Compound 33, (2,3-dihydrobenzo[b][1,4]dioxin-6-yl)(isoindolin-2-yl)methanone] | < 25 | < 5.30 | < 5.30
17 | O=C(CCN1Cc2ccccc2C1)c1ccc2c(c1)CCO2 [Compound 34, 1-(2,3-dihydrobenzofuran-5-yl)-3-(isoindolin-2-yl)propan-1-one] | < 25 | < 5.30 | < 5.30
